# Reference: patent US4150137A, “Pyridylalkyl esters of 2-(p-isobutylphenyl)acetic acid and propionic acids and use” (Hisamitsu Pharmaceutical Co. Inc., priority 1975, dated 1979)
# Experiments:
# [1] = system: carrageenin edema; experiment: Anti-inflammatory activity for oral route (carrageenin edema, hind paw); type: in vivo, rat (Wistar-strain); conditions: for anti-inflammatory effect, oral, 10 mg/kg (relative inhibition, ibuprofen = 1.0): 10 mg/kg oral; for anti-inflammatory effect, oral, 10 mg/kg (relative inhibition, ibuprofen = 1.0) / anti-inflammatory effect, oral, 50 mg/kg (relative inhibition, ibuprofen = 1.0): percent inhibition divided by that of ibuprofen, carrageenin edema after 3 hours; for anti-inflammatory effect, oral, 50 mg/kg (relative inhibition, ibuprofen = 1.0): 50 mg/kg oral; for mean percent inhibition (carrageenin edema): oral
# Experimental: After 30 minutes 0.5-1.0% carrageenin suspended in the water for injection was injected subcutaneously to a hind paw. After 3 hours the carrageenin edema was measured by volume, and the percent inhibition was determined with respect to the results for the control animals.
# [2] = system: male mice of dd-strain; type: in vivo; conditions: death of animals 72 hours following administration
# Experimental: Each test compound suspended in 0.5% tragacanth-saline was administered intraperitoneally or orally to male mice of dd-strain(body weight 16-24 g). The lethal dose was estimated from the death of animals 72 hours following administration.
# [3] = system: carrageenin-induced leakage of the pigment, dorsal skin; experiment: Anti-inflammatory activity for topical route (carrageenin, leakage of pigment in dorsal skin); type: in vivo, rat (Wistar-strain); conditions: for anti-inflammatory effect, topical (relative inhibition, ibuprofen = 1.0): 1% in polyethylene glycol 300, percent inhibition divided by that of ibuprofen
# Experimental: The dorsal skin of male rats of Wistar-strain(body weight: about 100 g) were depilated. Carrageenin suspension was injected intra-dermally at a dose of 250 γ/0.05 ml/site. […] Immediately after injection, the filter paper containing 125.2±18.0 mg of the polyethylene glycol was applied on the injected site. After 3 hours, 1% pontamine sky blue solution was injected intravenously at a dose of 0.5 ml/kg. After further 3 hours, the animals were sacrificed and their dorsal skin were removed to measure the area of leakage of the pigment. The percent inhibition was determined with respect to the results for the control animals.
# [4] = system: writhing syndrome; experiment: Analgetic activity (acetic acid writhing syndrome); type: in vivo, mouse (dd-strain); conditions: Mus musculus, 1 h; oral, mice, 0.6% acetic acid i.p. one hour later; Litchfield-Wilcoxon; read-out: analgetic effect ED50 (95% C.L.)
# Experimental: Each test compound suspended in 0.5% tragacanth-saline was orally administered to dd-strain mice(body weight: 18-20 g). After one hour 0.6% acetic acid solution was injected intraperitoneally in a volume of 0.1 ml/10 g.
SMILES,"anti-inflammatory effect, oral, 10 mg/kg (relative inhibition, ibuprofen = 1.0) [1]","anti-inflammatory effect, oral, 50 mg/kg (relative inhibition, ibuprofen = 1.0) [1]","acute toxicity, oral (lethal dose) [2] [mg/kg]","anti-inflammatory effect, topical (relative inhibition, ibuprofen = 1.0) [3]",ED50 [4] [mg/kg],mean percent inhibition (carrageenin edema) ([1]; 10 mg/kg) [%],mean percent inhibition (carrageenin edema) ([1]; 50 mg/kg) [%],mean percent inhibition (topical route) ([3]; 1% in polyethylene glycol 300) [%]
COC(=O)C(C)c1ccc(CC(C)C)cc1 (centres unmarked) [Compound 1],0.8,1.4,> 2000,3.5,109,,,
CC(C)Cc1ccc(C(C)C(=O)OCCN2CCN(C)CC2)cc1 (centres unmarked),1.0,1.1,1000 to 2000,2.5,31.6,,,
"CCCOC(=O)C(C)c1ccc(CC(C)C)cc1 (centres unmarked) [Compound 2, 2-(4-isobutylphenyl)propionic acid-n-propyl ester]",0.7,1.1,> 2000,3.2,192,,,
CC(=O)OCCOC(=O)C(C)c1ccc(CC(C)C)cc1 (centres unmarked) [Compound 18],0.7,1.1,> 2000,2.2,308,,,
CC(C)Cc1ccc(C(C)C(=O)OCc2ccccc2Cl)cc1 (centres unmarked),0.5,1.0,> 2000,2.5,51.4,,,
CC(C)Cc1ccc(C(C)C(=O)OCCN(C)C)cc1 (centres unmarked),0.8,1.2,1000 to 2000,2.0,53.7,,,
CC(C)Cc1ccc(C(C)C(=O)OCc2ccc(Cl)cc2)cc1 (centres unmarked),0.5,1.0,> 2000,2.8,486,,,
CCOCCOC(=O)C(C)c1ccc(CC(C)C)cc1 (centres unmarked) [Compound 15],0.7,0.9,> 2000,1.2,156,,,
CC(C)Cc1ccc(C(C)C(=O)OCc2ccc(F)cc2)cc1 (centres unmarked),1.1,1.2,,,,,,
CC(C)Cc1ccc(C(C)C(=O)OCCO)cc1 (centres unmarked) [Compound 10],0.5,1.0,> 2000,1.9,155,,,
CC(C)Cc1ccc(C(C)C(=O)OCc2ccccn2)cc1 (centres unmarked),0.7,1.8,1000 to 2000,4.0,67.8,,,
"CC(C)Cc1ccc(C(C)C(=O)O)cc1 (centres unmarked) [ibuprofen, 2-(p-isobutylphenyl)propionic acid, reference compound]",,,,,45.8,33.5,37.4,23.8
CC(C)Cc1ccc(C(C)C(=O)OCC2CC2)cc1 (centres unmarked),0.8,1.6,2000,3.7,103,,,
CC(C)Cc1ccc(C(C)C(=O)OCc2ccncc2)cc1 (centres unmarked),1.0,1.2,> 2000,2.7,87.1,,,
CC(C)Cc1ccc(C(C)C(=O)OCc2ccccc2)cc1 (centres unmarked),0.7,0.9,> 2000,3.1,118,,,
COc1ccc(COC(=O)C(C)c2ccc(CC(C)C)cc2)cc1 (centres unmarked),0.8,1.4,,2.3,220,,,
COCCOC(=O)C(C)c1ccc(CC(C)C)cc1 (centres unmarked) [Compound 14],0.4,1.2,1000 to 2000,1.2,406,,,
CC(C)Cc1ccc(C(C)C(=O)OCC(O)CO)cc1 (centres unmarked) [Compound 11],1.1,0.9,1000 to 2000,,143,,,
Cc1ccc(COC(=O)C(C)c2ccc(CC(C)C)cc2)cc1 (centres unmarked),1.7,1.5,,1.9,230,,,
CC(C)Cc1ccc(C(C)C(=O)OCc2cccc(F)c2)cc1 (centres unmarked),0.8,1.7,,0.9,634,,,
CC(C)Cc1ccc(C(C)C(=O)OCc2ccccc2F)cc1 (centres unmarked),1.6,1.7,,2.9,202,,,
CC(C)Cc1ccc(C(C)C(=O)OCc2c(Cl)cccc2Cl)cc1 (centres unmarked),0.6,1.0,> 2000,2.1,79.6,,,
CC(C)Cc1ccc(C(C)C(=O)OCC2CCCO2)cc1 (centres unmarked),0.6,0.9,1000 to 2000,3.1,91.6,,,
COCOC(=O)C(C)c1ccc(CC(C)C)cc1 (centres unmarked) [Compound 12],1.0,1.2,500 to 1000,2.5,174,,,
CC(=O)OCOC(=O)C(C)c1ccc(CC(C)C)cc1 (centres unmarked) [Compound 17],0.9,0.9,,,,,,
